Test results as given in the supplement of paper PMC13380429.

Assays:
U2OS [1] = assay: relative viability EC50 (midpoint between 100% and the lowest measured viability); higher = less toxic; settings: 72 h
Vero E6 [2] = assay: as above; settings: 72 h
Caco-2 [3] = assay: as above; settings: 72 h
Calu-3 [4] = assay: as above; settings: 72 h
HepG2 [5] = assay: as above; settings: 72 h
U2OS [6] = assay: drug sensitivity score (DSS) for viability; higher = more toxic; extreme values may be limits of the assay; settings: 72 h
Vero E6 [7] = assay: as above; settings: 72 h
Caco-2 [8] = assay: as above; settings: 72 h
Calu-3 [9] = assay: as above; settings: 72 h
HepG2 [10] = assay: as above; settings: 72 h
[11] = tested on: A549-ACE2 infected with SARS-CoV-2; assay: cell count relative to DMSO; higher = less toxic; settings: 24 h
U2OS [12] = assay: cell viability relative to DMSO; higher = less toxic; settings: 72 h
Vero E6 [13] = assay: as above; settings: 72 h
Caco-2 [14] = assay: as above; settings: 72 h
Calu-3 [15] = assay: as above; settings: 72 h
HepG2 [16] = assay: as above; settings: 72 h
A549-ACE2 [17] = assay: drug-induced phospholipidosis relative to tamoxifen; higher = more phospholipidosis
[18] = tested on: A549-ACE2 infected with SARS-CoV-2; assay: SARS-CoV-2 infection rate relative to DMSO; higher = more infection; settings: 24 h
A549-ACE2 [19] = assay: phospholipidosis EC50; higher = less potent phospholipidosis inducer
[20] = tested on: A549-ACE2 infected with SARS-CoV-2; assay: morphology score (similarity to uninfected cells); higher = more like uninfected cells; settings: 24 h

COc1cc2c(NC3CCN(C(C)C)CC3)nc(C3CCCCC3)nc2cc1OCCCN1CCCC1 [UNC0638]
Settings | drug sensitivity score | relative viability EC50 [µM]
Caco-2 [3] | – | > 10
Caco-2 [8] | 0 | –
Calu-3 [4] | – | 3.67
Calu-3 [9] | 4.1 | –
HepG2 [5] | – | 3.92
HepG2 [10] | 3.1 | –
U2OS [1] | – | > 10
U2OS [6] | 0.8 | –
Vero E6 [2] | – | > 10
Vero E6 [7] | 0 | –

Settings | SARS-CoV-2 infection rate [%] | cell count [%] | cell viability [%] | morphology score | phospholipidosis EC50 [µM]
A549-ACE2 [19], 24 h | – | – | – | – | 0.85
A549-ACE2 [19], 48 h | – | – | – | – | 0.916
A549-ACE2 [19], 72 h | – | – | – | – | 2.15
Caco-2 [14], 1 nM | – | – | 99.2 | – | –
Caco-2 [14], 10 nM | – | – | 95.3 | – | –
Caco-2 [14], 100 nM | – | – | 98.5 | – | –
Caco-2 [14], 1000 nM | – | – | 96.7 | – | –
Caco-2 [14], 10000 nM | – | – | 90.3 | – | –
Calu-3 [15], 1 nM | – | – | 108 | – | –
Calu-3 [15], 10 nM | – | – | 106 | – | –
Calu-3 [15], 100 nM | – | – | 105 | – | –
Calu-3 [15], 1000 nM | – | – | 109 | – | –
Calu-3 [15], 10000 nM | – | – | 14.4 | – | –
HepG2 [16], 1 nM | – | – | 91.9 | – | –
HepG2 [16], 10 nM | – | – | 103 | – | –
HepG2 [16], 100 nM | – | – | 107 | – | –
HepG2 [16], 1000 nM | – | – | 114 | – | –
HepG2 [16], 10000 nM | – | – | 28.9 | – | –
U2OS [12], 1 nM | – | – | 103 | – | –
U2OS [12], 10 nM | – | – | 104 | – | –
U2OS [12], 100 nM | – | – | 99.7 | – | –
U2OS [12], 1000 nM | – | – | 98.5 | – | –
U2OS [12], 10000 nM | – | – | 79.5 | – | –
Vero E6 [13], 1 nM | – | – | 104 | – | –
Vero E6 [13], 10 nM | – | – | 106 | – | –
Vero E6 [13], 100 nM | – | – | 101 | – | –
Vero E6 [13], 1000 nM | – | – | 99.2 | – | –
Vero E6 [13], 10000 nM | – | – | 91.5 | – | –
[11], 0.3 µM | – | 104 | – | – | –
[11], 3 µM | – | 120 | – | – | –
[11], 10 µM | – | 120 | – | – | –
[11], 30 µM | – | 85 | – | – | –
[18], 0.3 µM | 92 | – | – | – | –
[18], 3 µM | 21 | – | – | – | –
[18], 10 µM | 13 | – | – | – | –
[18], 30 µM | 37 | – | – | – | –
[20], 0.3 µM | – | – | – | 0.28 | –
[20], 3 µM | – | – | – | 0.76 | –
[20], 10 µM | – | – | – | 0.07 | –
[20], 30 µM | – | – | – | -0.22 | –

drug-induced phospholipidosis [%], A549-ACE2 [17]
Settings | 0.3 µM | 0.833333 µM | 3.33333 µM | 6.66667 µM | 10 µM | 30 µM
24 h | 19 | 47.5 | 80.5 | 93.8 | 106 | 38.3
48 h | 20.5 | 48.8 | 76.7 | 97.3 | 89.8 | –
72 h | 16 | 32 | 73.7 | 84.2 | 95.7 | –

CCOC(=O)C1=C(COCCN)NC(C)=C(C(=O)OC)C1c1ccccc1Cl (configuration not stated) [amlodipine]
Settings | drug sensitivity score | relative viability EC50 [µM]
Caco-2 [3] | – | > 10
Caco-2 [8] | 0 | –
Calu-3 [4] | – | > 10
Calu-3 [9] | 0 | –
HepG2 [5] | – | > 10
HepG2 [10] | 0 | –
U2OS [1] | – | > 10
U2OS [6] | 0 | –
Vero E6 [2] | – | > 10
Vero E6 [7] | 0 | –

Settings | SARS-CoV-2 infection rate [%] | cell count [%] | cell viability [%] | morphology score | phospholipidosis EC50 [µM]
A549-ACE2 [19], 24 h | – | – | – | – | 10.9
Caco-2 [14], 1 nM | – | – | 97.9 | – | –
Caco-2 [14], 10 nM | – | – | 102 | – | –
Caco-2 [14], 100 nM | – | – | 98.2 | – | –
Caco-2 [14], 1000 nM | – | – | 93.5 | – | –
Caco-2 [14], 10000 nM | – | – | 94.2 | – | –
Calu-3 [15], 1 nM | – | – | 93.6 | – | –
Calu-3 [15], 10 nM | – | – | 104 | – | –
Calu-3 [15], 100 nM | – | – | 94.1 | – | –
Calu-3 [15], 1000 nM | – | – | 102 | – | –
Calu-3 [15], 10000 nM | – | – | 93.9 | – | –
HepG2 [16], 1 nM | – | – | 97.7 | – | –
HepG2 [16], 10 nM | – | – | 98.1 | – | –
HepG2 [16], 100 nM | – | – | 91.2 | – | –
HepG2 [16], 1000 nM | – | – | 99.2 | – | –
HepG2 [16], 10000 nM | – | – | 96.4 | – | –
U2OS [12], 1 nM | – | – | 94.8 | – | –
U2OS [12], 10 nM | – | – | 102 | – | –
U2OS [12], 100 nM | – | – | 96.6 | – | –
U2OS [12], 1000 nM | – | – | 101 | – | –
U2OS [12], 10000 nM | – | – | 97.5 | – | –
Vero E6 [13], 1 nM | – | – | 96.7 | – | –
Vero E6 [13], 10 nM | – | – | 90.2 | – | –
Vero E6 [13], 100 nM | – | – | 91.1 | – | –
Vero E6 [13], 1000 nM | – | – | 84.8 | – | –
Vero E6 [13], 10000 nM | – | – | 96.1 | – | –
[11], 0.3 µM | – | 96 | – | – | –
[11], 3 µM | – | 112 | – | – | –
[11], 10 µM | – | 119 | – | – | –
[11], 30 µM | – | 91 | – | – | –
[18], 0.3 µM | 107 | – | – | – | –
[18], 3 µM | 79 | – | – | – | –
[18], 10 µM | 23 | – | – | – | –
[18], 30 µM | 30 | – | – | – | –
[20], 0.3 µM | – | – | – | -0.27 | –
[20], 3 µM | – | – | – | 0.49 | –
[20], 10 µM | – | – | – | 0.92 | –
[20], 30 µM | – | – | – | 0.35 | –

drug-induced phospholipidosis [%], A549-ACE2 [17]
Settings | 0.3 µM | 0.833333 µM | 3.33333 µM | 6.66667 µM | 10 µM | 30 µM
24 h | 4.07 | -2.24 | 14.4 | 39.7 | 58.4 | 105
48 h | 3.72 | 0.34 | 10.8 | 17.5 | 37 | 187
72 h | 5.62 | -0.058 | 6.8 | 13.1 | 21 | 181
